Reference: patent US20200123190A1

System: human pancreatic cancer cells (MIA-Paca-2)
Assay: Cell growth inhibitory effect, alamarBlue
Type: cell-based
Settings: MIA-Paca-2, cultured for 3 days
Description: Each of the test compounds (DMSO solutions in various concentrations) was added to 100 μL of a culture solution containing human pancreatic cancer cells (MIA-Paca-2) (cell count: about 5×10^3 cells) and cultured for 3 days. The cell growth inhibitory effect was investigated by fluorescence color development using alamarBlue reagent. Each of their IC50 values was determined.

IC50 (Homo sapiens, 72 h) | Molecule | IC50
7.4 µM | Nc1ccn([C@@H]2O[C@H](CO)[C@@H](O)C2(F)F)c(=O)n1 [Gemcitabine, 2′-Deoxy-2′,2′-difluorocytidine, reference compound] | 
 | O,O′— Di (4-chloro)benzyl 2′-deoxy-2′,2′-difluoro-5′-cytidylate [Compound (2)] | 18 µM
 | O,O′— Di(4-bromo)benzyl 2′-deoxy-2′,2′-difluoro-5′-cytidylate [Compound (3)] | 21.8 µM
 | O,′-Di (4-fluoro)benzyl 2′-deoxy-2′,2′-difluoro-5′-cytidylate [Compound (1)] | 9.8 µM
